In paper PMC10870048, “2,4‐Dihydroxybenzoic Acid, a Novel SA Derivative, Controls Plant Immunity via UGT95B17‐Mediated Glucosylation: A Case Study in Camellia Sinensis” (Advanced Science, 2023):

system: T1, UGT95B17; experiment: UDP-Glo glycosyltransferase assay; format: biochemical, Camellia sinensis; conditions: UDP-glucose co-substrate, pH 7.5, 25 °C, 40 min; read-out: apparent KM
T1 construct: full-length ORF in pGEX-4T-1 (N-terminal GST tag of vector)

| Km [µM] | Structure (SMILES) |
| --- | --- |
| 0.31 ± 0.11 | O=C(O)c1cc(O)ccc1O [2,5-DHBA] |
| 0.81 ± 0.26 | O=C(O)c1ccc(O)cc1O [2,4-DHBA] |
| 3.31 ± 0.58 | O=C(O)c1cccc(O)c1O [2,3-DHBA] |
